In PMC3706558 (Biochemistry, 2013):

Experiments:
[1] = target: T1, Mtb ICDH-1 (Mycobacterium tuberculosis, UniProt P9WKL1); experiment: biochemical
[2] = target: T1, Mtb ICDH-1; experiment: NADPH formation at […] nm, dead-end inhibition; format: biochemical
[3] = tested on: NC(=O)c1ccc[n+]([C@@H]2O[C@H](COP(=O)(O)OP(=O)(O)OC[C@H]3O[C@@H](n4cnc5c(N)ncnc54)[C@H](OP(=O)(O)O)[C@@H]3O)[C@@H](O)[C@H]2O)c1; experiment: purified protein; details: pH 7.5

T1 sequence (P9WKL1 whole entry): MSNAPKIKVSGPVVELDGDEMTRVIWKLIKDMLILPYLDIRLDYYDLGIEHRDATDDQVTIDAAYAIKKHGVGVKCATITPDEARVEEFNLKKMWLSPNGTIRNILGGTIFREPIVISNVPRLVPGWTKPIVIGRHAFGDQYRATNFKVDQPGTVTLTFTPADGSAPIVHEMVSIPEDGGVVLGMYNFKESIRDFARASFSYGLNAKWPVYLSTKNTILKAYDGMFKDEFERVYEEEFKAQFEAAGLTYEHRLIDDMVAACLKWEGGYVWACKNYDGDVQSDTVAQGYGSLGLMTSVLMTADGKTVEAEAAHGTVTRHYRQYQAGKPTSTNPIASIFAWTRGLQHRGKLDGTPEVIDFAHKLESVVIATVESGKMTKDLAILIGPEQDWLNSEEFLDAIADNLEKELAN

Molecule	Ki [1] [mM]	also measured
NC(=O)C1=CN([C@@H]2O[C@H](COP(=O)(O)OP(=O)(O)OC[C@H]3O[C@@H](n4cnc5c(N)ncnc54)[C@H](OP(=O)(O)O)[C@@H]3O)[C@@H](O)[C@H]2O)C=CC1 [NADPH]	0.006 ± 0.002	–
O=C(O)C[C@H](O)C(=O)O [malate]	–	Ki [2]: 80 ± 15 mM
O=C(O)CCC(=O)C(=O)O [αKG]	22 ± 6	–
Mtb ICDH-1 (Mycobacterium tuberculosis H37Rv)	–	Km [3]: 15 ± 3 µM
